Measured values as given in ChEMBL document CHEMBL3244379, “Stereochemical studies on medicinal agents. 23. Synthesis and biological evaluation of 6-amino derivatives of naloxone and naltrexone” (J Med Chem, 1977).
Active and inactive are the calls of the source. The calls are words filed in the database; no cut-off is given here.

What was measured:
[1] = target: T1, Opioid receptors; mu/kappa/delta (Homo sapiens, UniProt P41145+P41143+P35372); test: Displacement of [3H] naloxone from opioid receptor (unknown origin) in presence of 100 mM NaCl
[2] = target: T1, Opioid receptors; mu/kappa/delta; test: Displacement of [3H] naloxone from opioid receptor (unknown origin)
Mus musculus [3] = test: Antinociceptive activity in Swiss Webster mouse at 5.12 mg/kg, sc by tail-flick assay; type: functional; details: route subcutaneous
Mus musculus [4] = test: Antinociceptive activity in sc dosed Swiss Webster mouse by tail-flick assay; type: functional
Mus musculus [5] = test: Antinociceptive activity in Swiss Webster mouse at 1.6 mg/kg, sc by tail-flick assay; type: functional, organism-based; design: dose 1.6 mg/kg

SMILES | IC50 [1] | IC50 [2] | inhibition in vivo at 5.12 mg/kg (Mus musculus [3]) [%] | ED50 (Mus musculus [4]) [mg/kg] | inhibition (Mus musculus [5])
Cl.N[C@@H]1CC[C@@]2(O)[C@H]3Cc4ccc(O)c5c4[C@@]2(CCN3CC2CC2)[C@H]1O5 | 7 ×10⁻¹⁰ M | 9.1 ×10⁻¹⁰ M | 27 | – | –
CN1CC[C@]23c4c5ccc(O)c4O[C@H]2[C@@H](O)C=C[C@H]3[C@H]1C5.Cl [MORPHINE HYDROCHLORIDE] | – | – | – | 0.33 | –
C=CCN1CC[C@]23c4c5ccc(O)c4O[C@H]2[C@@H](N)CC[C@@]3(O)[C@H]1C5.Cl | 1.1 ×10⁻⁷ M | 1.4 ×10⁻⁷ M | – | – | inactive
C=CCN1CC[C@]23c4c5ccc(O)c4O[C@H]2[C@H](N)CC[C@@]3(O)[C@H]1C5.Cl | 5.3 ×10⁻⁸ M | 8.6 ×10⁻⁸ M | – | 4.9 | –
Cl.N[C@H]1CC[C@@]2(O)[C@H]3Cc4ccc(O)c5c4[C@@]2(CCN3CC2CC2)[C@H]1O5 | 9 nM | 2.9 nM | 18 | – | –
